The text below walks through data of article PMC8964227, “IP-Se-06, a Selenylated Imidazo[1,2-a]pyridine, Modulates Intracellular Redox State and Causes Akt/mTOR/HIF-1α and MAPK Signaling Inhibition, Promoting Antiproliferative Effect and Apoptosis in Glioblastoma Cells” (Oxidative Medicine and Cellular Longevity, 2022).

Holding throughout (assay type): cell-based, human
The subject of assay [1] is thioredoxin reductase (TrxR). Nature of the assay: Thioredoxin reductase activity in A172 cells (DTNB reduction). Particulars: 1 μM, 6 h, vs control. The method, then:
To determine thioredoxin reductase (TrxR) activity and levels of reduced glutathione (GSH), glioblastoma cells were plated (4 × 10^5/well) into 12-well plates. At confluence, the cells were exposed at low concentration to IP-Se-06 (1 μM) for 6 h. After treatment time, cells were washed twice with PBS and resuspended with PBS/Triton 1%, centrifuged at 5000 g for 5 min and the supernatants were used for the determinations. All results were normalized by the protein content using the Bradford method.
TrxR activity was determined in A172 cells according to the method previously described by Arnér and collaborators, measuring the NADPH-dependent DTNB reduction to TNB (5-thio-2-nitrobenzoic acid) promoted by TrxR activity. The content of TNB derived from free thiols was measured at 412 nm. The enzyme activity was expressed as μmol·min^−1·mg protein^−1.

The next assay concerns γ-H2AX. As to the kind of experiment: Western blotting γ-H2AX, A172 cells. Particulars: 1 μM, vs control. The method, then: (§1) After treatment with IP-Se-06 (1 μM) for 48 h, A172 cells were harvested with a lysis buffer. The lysates were collected, and the total proteins present in the lysates were quantified according to Lowry. Proteins present in the cell lysates (30 μg) were subjected to SDS-polyacrylamide gel electrophoresis, followed by electroblotting to polyvinylidene fluoride (PVDF) membranes. Nonspecific binding was blocked by incubating the membrane with skimmed milk in TBS buffer containing 0.1% Tween 20 (TBS-T) for 1 h. After primary antibody incubation, membranes were incubated with appropriate HRP-conjugated secondary antibodies for 1 h at room temperature. Immunodetection was performed using an enhanced chemiluminescence (ECL) detection kit. Protein bands were visualized using ChemiDoc MP Imaging System (Bio-Rad) and quantified by densitometry using the freeware ImageJ by Wayne Rasband from the National Institute of Health (USA).

The test system of the next assay is p-p38. As to the kind of experiment: Western blotting p-p38, A172 cells. Particulars: 1 μM, 48 h, vs control. How it is done: as §1
The next assay has as its system p53. As to the kind of experiment: Western blotting p53, A172 cells. Particulars: 1 μM, vs control. The method, then:
as §1

Assay [2] has as its system A172 cells. Nature of the assay: Assessment of cell death (acridine orange plus propidium iodide). Particulars: 1 μM, 72 h, vs nontreated. How it is done: The cells were seeded (density of 2 × 10^5/well) into 6-well plates. After confluence, cells were treated with IP-Se-06 (1 μM) for 72 h. After this period, tumor cells were washed with PBS, trypsinized, centrifuged at 1500 g for 5 min, resuspended in PBS, and stained with a solution (6 μL, 1 : 1) of acridine orange (100 μg/mL) plus propidium iodide (100 μg/mL). This staining is used to analyze nuclear changes that characterize apoptotic and necrotic cells according to McGahon and collaborators. Cells (300/glass slide) from triplicates were observed under a fluorescence microscope (Olympus BX41) and categorized as viable, apoptotic, or necrotic.

The test system of another assay is Bcl-xL. As to the kind of experiment: Western blotting Bcl-xL, A172 cells. Particulars: 1 μM, vs control. The method, then:
as §1

A further assay deals with NRF2. Nature of the assay: Western blotting NRF2, A172 cells. Particulars: 1 μM, vs control. How it is done: as §1
Assay [3] has as its system A172 cells. Nature of the assay: Mitochondrial membrane potential (TMRE). Particulars: 1 μM, 6 h, vs control. How it is done:
The loss of mitochondrial transmembrane potential was analyzed using the fluorescent probe TMRE according to as proposed by O'Reilly and collaborators, with modifications. A172 cells (4 × 10^5/well) were plated in 12-well plates. After confluence, the cells were treated with IP-Se-06 (1 μM) for 6 h. After treatment, the cells were washed once with HBSS and incubated with TMRE (1 μM) at 37°C for 20 min. Lastly, the cells were washed with HBSS and the fluorescence intensity was measured at excitation peak of 549 nm and emission of 575 nm.

The subject of the next assay is Akt. As to the kind of experiment: Western blotting Akt, A172 cells. Particulars: 1 μM, 48 h, vs control. How it is done:
as §1

Assay [4] deals with A172 cells. As to the kind of experiment: Chromatin condensation detection (DAPI). Particulars: 1 μM, 72 h. The method, then: DAPI was used to analyze changes in the nuclear morphology of apoptotic cells after DNA damage. A172 cells (0.5 × 10^4/well) in 24-well plates were treated with IP-Se-06 (1 μM) for 72 h. The cells were then fixed with 4% paraformaldehyde for 10 min at 4°C. The fixed cells were washed three times with PBS (pH 7.4) and stained with DAPI (3 μg/mL) in PBS at 37°C for 10 min. Finally, the cells were washed in PBS, and nuclear morphology was photographed by a fluorescence Olympus IX83 microscope.

The test system of a further assay is p38 MAPK. Nature of the assay: Western blotting p38, A172 cells. Particulars: 1 μM, 48 h, vs control. How it is done: as §1

Molecules are shown by their SMILES.

For the compound `COc1ccccc1[Se]c1c(-c2ccccc2)nc2cc(C)ccn12` [IP-Se-06, 3-((2-methoxyphenyl)selanyl)-7-methyl-2-phenylimidazol[1,2-a]pyridine], the TrxR intracellular activity entry in assay [1] is “significantly decreased”. The “levels of γ-H2AX” value in the assay on γ-H2AX is on record as “increased”. In the assay on p-p38, the “phosphorylation of p38 (p-p38)” value is listed as “significantly decreased”. Also, the “levels of p53” value with p53 was “increased”. Further, in the assay with A172 cells [2], the “apoptosis (acridine orange plus propidium iodide)” value was “able to induce apoptosis”. For the same compound, in the assay on Bcl-xL, the “levels of Bcl-xL” value is listed as “decreased”. In addition, the “levels of NRF2 protein” value in the assay with NRF2 was “decreased”. Also, the “ΔΨm, TMRE fluorescence intensity” value with A172 cells [3] was “reduced”. Moreover, the “levels of Akt” value in the assay on Akt is “significant reduction”. For the same compound, in the assay with A172 cells [4], the “nuclear morphology (DAPI)” value was “brightly stained and condensed nuclei”. Besides, the “levels of p38” value in the assay with p38 MAPK is listed as “significantly decreased”.
